Measured values: ChEMBL document CHEMBL6092220 (J Med Chem, 2024)
The source made the active and inactive calls. The rule behind the calls is not given here.

How the values were obtained:
[1] = biological target: T1, Protein cereblon/Signal transducer and activator of transcription 3 (Homo sapiens, UniProt P40763+Q96SW2); assay: PROTAC activity at his-SUMO-tagged STAT3 (127 to 688 residues)/CRBN in human HeLa cells assessed as induction of STAT3 degradation incubated for 24 hrs by TECAN SPARK microplate reader analysis; assay type: cell-based
[2] = biological target: T1, Protein cereblon/Signal transducer and activator of transcription 3; assay: PROTAC activity at his-SUMO-tagged STAT3 (127 to 688 residues)/CRBN in human HeLa cells assessed as induction of STAT3 degradation incubated for 24 hrs by TECAN SPARK microplate reader analysis relative to control; assay type: cell-based
[3] = biological target: T2, Protein cereblon/Signal transducer and activator of transcription 3 (Mus musculus) (UniProt P42227+Q8C7D2); assay: In-vivo PROTAC activity at STAT3/CRBN in female CB17 SCID mouse assessed as reduction STAT3 level liver at 10 mg/kg, iv measured at 24 hrs by Western blot analysis; assay type: functional, organism-based; parameters: scale not given: the % may be the effect or the level left
[4] = biological target: T2, Protein cereblon/Signal transducer and activator of transcription 3 (Mus musculus); assay: In-vivo PROTAC activity at STAT3/CRBN in female CB17 SCID mouse assessed as reduction STAT3 level spleen at 10 mg/kg, iv measured at 24 hrs by Western blot analysis; assay type: functional, organism-based; parameters: scale not given: the % may be the effect or the level left
[5] = Binding affinity to STAT5 (unknown origin) by FP assay; parameters: species or system Homo sapiens
[6] = biological target: T1, Protein cereblon/Signal transducer and activator of transcription 3; assay: PROTAC activity at his-SUMO-tagged STAT3 (127 to 688 residues)/CRBN in human HeLa cells assessed as induction of STAT3 degradation upto 5 uM incubated for 24 hrs by TECAN SPARK microplate reader analysis; assay type: cell-based
[7] = biological target: T2, Protein cereblon/Signal transducer and activator of transcription 3 (Mus musculus); assay: In-vivo PROTAC activity at STAT3/CRBN in female CB17 SCID mouse assessed as reduction STAT3 level liver at 10 mg/kg, iv measured at 48 hrs by Western blot analysis; assay type: functional, organism-based; parameters: scale not given: the % may be the effect or the level left
[8] = biological target: T2, Protein cereblon/Signal transducer and activator of transcription 3 (Mus musculus); assay: In-vivo PROTAC activity at STAT3/CRBN in female CB17 SCID mouse assessed as reduction STAT3 level spleen at 10 mg/kg, iv measured at 48 hrs by Western blot analysis; assay type: functional, organism-based; parameters: scale not given: the % may be the effect or the level left
[9] = biological target: T2, Protein cereblon/Signal transducer and activator of transcription 3 (Mus musculus); assay: In-vivo PROTAC activity at STAT3/CRBN in female CB17 SCID mouse assessed as reduction STAT3 level liver at 10 mg/kg, iv measured at 72 hrs by Western blot analysis; assay type: functional, organism-based; parameters: scale not given: the % may be the effect or the level left
[10] = biological target: T2, Protein cereblon/Signal transducer and activator of transcription 3 (Mus musculus); assay: In-vivo PROTAC activity at STAT3/CRBN in female CB17 SCID mouse assessed as reduction STAT3 level spleen at 10 mg/kg, iv measured at 72 hrs by Western blot analysis; assay type: functional, organism-based; parameters: scale not given: the % may be the effect or the level left
[11] = Antiproliferative activity against human MOLM16 cells assessed as cell growth inhibition incubated for 4 days by celltiter-glo assay; assay type: functional, cell-based, MOLM-16; details: MOLM16, 96 h
[12] = test system: SU-DHL-1; assay: Antiproliferative activity against human SU-DHL-1 cells assessed as cell growth inhibition incubated for 4 days by celltiter-glo assay; assay type: functional, cell-based; details: SU-DHL-1, 96 h
[13] = Antiproliferative activity against human SUPM2 cells assessed as cell growth inhibition incubated for 4 days by celltiter-glo assay; assay type: functional, cell-based; details: SUP-M2, 96 h

| SMILES | DC50 [1] [nM] | Emax [2] [%] | further results |
| --- | --- | --- | --- |
| CN1CC[C@H]2CC[C@@H](C(=O)N[C@@H](CCC(N)=O)C(=O)N[C@H](C(=O)N3CCC(CCC#Cc4cccc5c4CN(C4CCC(=O)NC4=O)C5=O)CC3)c3ccccc3)N2C(=O)[C@@H](NC(=O)c2cc3cc(C(F)(F)P(=O)(O)O)ccc3s2)C1 (some centres not stated) | 300 | 86 | – |
| CN1CC[C@H]2CC[C@@H](C(=O)N[C@@H](CCC(N)=O)C(=O)N[C@H](C(=O)NCCCCCCCCCC#Cc3cccc4c3CN(C3CCC(=O)NC3=O)C4)c3ccccc3)N2C(=O)[C@@H](NC(=O)c2cc3cc(C(F)(F)P(=O)(O)O)ccc3s2)C1 (some centres not stated) | 300 | 66 | – |
| CN1CC[C@H]2CC[C@@H](C(=O)N[C@@H](CCC(N)=O)C(=O)N[C@@H](Cc3ccc(F)cc3)C(=O)N3CCC(CCC#Cc4cccc5c4CN(C4CCC(=O)NC4=O)C5=O)CC3)N2C(=O)[C@@H](NC(=O)c2cc3cc(C(F)(F)P(=O)(O)O)ccc3s2)C1 (some centres not stated) | 90 | 94 | Activity [3]: 70%; Activity [4]: 50% |
| CN1CC[C@H]2CC[C@@H](C(=O)N[C@@H](CCC(N)=O)C(=O)N[C@@H](Cc3ccccc3)C(=O)N3CCC(CCC#Cc4cccc5c4CN(C4CCC(=O)NC4=O)C5=O)CC3)N2C(=O)[C@@H](NC(=O)c2cc3cc(C(F)(F)P(=O)(O)O)ccc3s2)C1 (some centres not stated) | 130 | 94 | Activity [3]: 60%; Activity [4]: 50%; IC50 [5]: > 10 nM |
| CN1CC[C@H]2CC[C@@H](C(=O)N[C@@H](CCC(N)=O)C(=O)N[C@H](CCC(=O)N3CCC(C#Cc4cccc5c4CN(C4CCC(=O)NC4=O)C5)CC3)c3ccccc3)N2C(=O)[C@@H](NC(=O)c2cc3cc(C(F)(F)P(=O)(O)O)ccc3s2)C1 (some centres not stated) | > 5000 | 31 | – |
| CN1CC[C@H]2CC[C@@H](C(=O)N[C@@H](CCC(N)=O)C(=O)N[C@H](C(=O)N3CCC(CCC#Cc4cccc5c4CN(C4CCC(=O)NC4=O)C5=O)CC3)C3CCCCC3)N2C(=O)[C@@H](NC(=O)c2cc3cc(C(F)(F)P(=O)(O)O)ccc3s2)C1 (some centres not stated) | 260 | 91 | – |
| CN1CC[C@H]2CC[C@@H](C(=O)N[C@@H](CCC(N)=O)C(=O)N[C@H](CC(=O)N3CCC(C#Cc4cccc5c4CN(C4CCC(=O)NC4=O)C5)CC3)c3ccccc3)N2C(=O)[C@@H](NC(=O)c2cc3cc(C(F)(F)P(=O)(O)O)ccc3s2)C1 (some centres not stated) | > 5000 | 0 | – |
| CN1CC[C@H]2CC[C@@H](C(=O)N[C@@H](CCC(N)=O)C(=O)N[C@@H](C(=O)NCCCCCCCCC#Cc3cccc4c3CN(C3CCC(=O)NC3=O)C4=O)c3ccccc3)N2C(=O)[C@@H](NC(=O)c2cc3cc(C(F)(F)P(=O)(O)O)ccc3s2)C1 (some centres not stated) | 800 | 60 | – |
| CN1CC[C@H]2CC[C@@H](C(=O)N[C@@H](CCC(N)=O)C(=O)N[C@H](C(=O)N3CCN(CCC#Cc4cccc5c4CN(C4CCC(=O)NC4=O)C5=O)CC3)c3ccccc3)N2C(=O)[C@@H](NC(=O)c2cc3cc(C(F)(F)P(=O)(O)O)ccc3s2)C1 (some centres not stated) | 2500 | 62 | – |
| CN1CC[C@H]2CC[C@@H](C(=O)N[C@@H](CCC(N)=O)C(=O)N[C@](C)(C(=O)N3CCC(CCC#Cc4cccc5c4CN(C4CCC(=O)NC4=O)C5=O)CC3)c3ccccc3)N2C(=O)[C@@H](NC(=O)c2cc3cc(C(F)(F)P(=O)(O)O)ccc3s2)C1 (some centres not stated) | > 5000 | 2 | Activity [6]: inactive |
| CN1CC[C@H]2CC[C@@H](C(=O)N[C@@H](CCC(N)=O)C(=O)N[C@H](C(=O)NCCCC#Cc3cccc4c3CN(C3CCC(=O)NC3=O)C4=O)c3ccccc3)N2C(=O)[C@@H](NC(=O)c2cc3cc(C(F)(F)P(=O)(O)O)ccc3s2)C1 (some centres not stated) | > 5000 | 16 | – |
| CN1CC[C@H]2CC[C@@H](C(=O)N[C@@H](CCC(N)=O)C(=O)NC3(C(=O)N4CCC(CCC#Cc5cccc6c5CN(C5CCC(=O)NC5=O)C6=O)CC4)CCCCC3)N2C(=O)[C@@H](NC(=O)c2cc3cc(C(F)(F)P(=O)(O)O)ccc3s2)C1 (some centres not stated) | > 5000 | 0 | Activity [6]: inactive |
| CN1CC[C@H]2CC[C@@H](C(=O)N[C@@H](CCC(N)=O)C(=O)N[C@@H](Cc3ccc(F)c(F)c3)C(=O)N3CCC(CCC#Cc4cccc5c4CN(C4CCC(=O)NC4=O)C5=O)CC3)N2C(=O)[C@@H](NC(=O)c2cc3cc(C(F)(F)P(=O)(O)O)ccc3s2)C1 (some centres not stated) | 220 | 90 | Activity [3]: 80%; Activity [4]: 50% |
| CN1CC[C@H]2CC[C@@H](C(=O)N[C@@H](CCC(N)=O)C(=O)N[C@@H](C(=O)NCCCCCCC#Cc3cccc4c3CN(C3CCC(=O)NC3=O)C4=O)c3ccccc3)N2C(=O)[C@@H](NC(=O)c2cc3cc(C(F)(F)P(=O)(O)O)ccc3s2)C1 (some centres not stated) | > 5000 | 36 | – |
| CN1CC[C@H]2CC[C@@H](C(=O)N[C@@H](CCC(N)=O)C(=O)N[C@H](C(=O)NCCCCCC#Cc3cccc4c3CN(C3CCC(=O)NC3=O)C4=O)c3ccccc3)N2C(=O)[C@@H](NC(=O)c2cc3cc(C(F)(F)P(=O)(O)O)ccc3s2)C1 (some centres not stated) | > 5000 | 34 | – |
| CN1CC[C@H]2CC[C@@H](C(=O)N[C@@H](CCC(N)=O)C(=O)N[C@@H](C(=O)N3CCC(CCC#Cc4cccc5c4CN(C4CCC(=O)NC4=O)C5=O)CC3)C(C)(C)C)N2C(=O)[C@@H](NC(=O)c2cc3cc(C(F)(F)P(=O)(O)O)ccc3s2)C1 (some centres not stated) | 1010 | 80 | – |
| CN1CC[C@H]2CC[C@@H](C(=O)N[C@@H](CCC(N)=O)C(=O)N[C@H](C(=O)NCCCCC#Cc3cccc4c3CN(C3CCC(=O)NC3=O)C4=O)c3ccccc3)N2C(=O)[C@@H](NC(=O)c2cc3cc(C(F)(F)P(=O)(O)O)ccc3s2)C1 (some centres not stated) | > 5000 | 42 | – |
| NC(=O)CC[C@H](NC(=O)[C@@H]1CC[C@@H]2CCNC[C@H](NC(=O)c3cc4cc(C(F)(F)P(=O)(O)O)ccc4s3)C(=O)N21)C(=O)N[C@@H](Cc1ccc(F)c(F)c1)C(=O)N1CCC(CCC#Cc2cccc3c2CN(C2CCC(=O)NC2=O)C3=O)CC1 (some centres not stated) | 1200 | 73 | Activity [3]: Active; Activity [4]: Active |
| CC(C)N1CC[C@H]2CC[C@@H](C(=O)N[C@@H](CCC(N)=O)C(=O)N[C@@H](Cc3ccc(F)c(F)c3)C(=O)N3CCC(CCC#Cc4cccc5c4CN(C4CCC(=O)NC4=O)C5=O)CC3)N2C(=O)[C@@H](NC(=O)c2cc3cc(C(F)(F)P(=O)(O)O)ccc3s2)C1 (some centres not stated) | 500 | 83 | Activity [3]: > 90%; Activity [4]: > 90%; Activity [7]: > 90%; Activity [8]: > 90%; Activity [9]: > 90%; Activity [10]: > 90%; IC50 [11]: 93 nM; IC50 [12]: 1780 nM; IC50 [13]: 1550 nM |
| NC(=O)CC[C@H](NC(=O)[C@@H]1CC[C@@H]2CCN(C(=O)CCCCCC#Cc3cccc4c3CN(C3CCC(=O)NC3=O)C4=O)C[C@H](NC(=O)c3cc4cc(C(=O)P(=O)(O)O)ccc4[nH]3)C(=O)N21)C(=O)NC(c1ccccc1)c1ccccc1 (some centres not stated) | 400 | 88 | IC50 [11]: 22 nM; IC50 [12]: 300 nM; IC50 [13]: 470 nM |
| CN1CC[C@H]2CC[C@@H](C(=O)N[C@@H](CCC(N)=O)C(=O)N[C@H](C(=O)NCCCCCCCC#Cc3cccc4c3CN(C3CCC(=O)NC3=O)C4=O)c3ccccc3)N2C(=O)[C@@H](NC(=O)c2cc3cc(C(F)(F)P(=O)(O)O)ccc3s2)C1 (some centres not stated) | 1500 | 52 | – |
| CCN1CC[C@H]2CC[C@@H](C(=O)N[C@@H](CCC(N)=O)C(=O)N[C@@H](Cc3ccc(F)c(F)c3)C(=O)N3CCC(CCC#Cc4cccc5c4CN(C4CCC(=O)NC4=O)C5=O)CC3)N2C(=O)[C@@H](NC(=O)c2cc3cc(C(F)(F)P(=O)(O)O)ccc3s2)C1 (some centres not stated) | 200 | 92 | Activity [3]: 80%; Activity [4]: 80%; IC50 [11]: 31 nM; IC50 [12]: 540 nM; IC50 [13]: 540 nM |
